Experimental data: patent US20040022676A1, “Apparatus and method for controlled delivery of a gas” (Selective Micro Technologies, LLC, priority 2000, published 2004)

Columns and labels:
microbes = settings: as low as; cited from earlier work
biofilm = assay: Removal of biofilm from contaminated dental equipment with chlorine dioxide solution
From the text: Apparatus 1310 can also be incorporated into a pouch like that depicted in FIG. 15 to generate a desired concentration of gas, e.g., chlorine dioxide, in water. This embodiment is particularly useful in wet applications, e.g., for use in removing biofilm from dental equipment. One such apparatus was constructed and used to generate an aqueous solution containing 50 parts per million chlorine dioxide. It was then emptied into a dental equipment reservoir and allowed to run through the equipment, which was contaminated with biolfilm, and stand overnight. In the morning, the dental equipment was flushed with water. This procedure was repeated the following two nights. The equipment was then tested for the presence of biofilm and the biofilm was diminished. Thereafter, rinsing the equipment once daily with a 5 parts per million solution was adequate to retard the growth of biofilm in the equipment.

SMILES: [O][Cl+][O-] [chlorine dioxide]
- concentration at which effective as disinfectant (microbes): 0.2 mg/L
- presence of biofilm in dental equipment after treatment (biofilm; 50 parts per million solution, run through and left overnight, three nights): diminished
- concentration of solution adequate to retard the growth of biofilm (biofilm; rinsing the equipment once daily, after initial treatment): 5 parts per million
